Test results reported in patent US20240199546A1, “INHIBITORS OF SOLUTE CARRIER FAMILY 6A MEMBER 19 (SLC6A19) AND METHODS OF USE THEREOF” (Maze Therapeutics, Inc., priority 2022, published 2024).
pIC50: −log10 of the molar value. Structures can show the parent of a compound that is named as a salt.

Columns and labels:
human SLC6A19 and TMEM27 [1] = target: T1, human SLC6A19 and TMEM27 (Homo sapiens, UniProt Q695T7); test: Radiolabelled (3H) leucine uptake in CHO cells with doxycycline-inducible expression of human SLC6A19 and TMEM27 (Example B-1); format: cell-based; conditions: CHO cells with doxycycline-inducible expression of human SLC6A19 and TMEM27, read-out: SLC6A19_Radioligand Uptake Assay IC50
T1 construct: expressed in transfected cells
T1 sequence (Q695T7 1-634): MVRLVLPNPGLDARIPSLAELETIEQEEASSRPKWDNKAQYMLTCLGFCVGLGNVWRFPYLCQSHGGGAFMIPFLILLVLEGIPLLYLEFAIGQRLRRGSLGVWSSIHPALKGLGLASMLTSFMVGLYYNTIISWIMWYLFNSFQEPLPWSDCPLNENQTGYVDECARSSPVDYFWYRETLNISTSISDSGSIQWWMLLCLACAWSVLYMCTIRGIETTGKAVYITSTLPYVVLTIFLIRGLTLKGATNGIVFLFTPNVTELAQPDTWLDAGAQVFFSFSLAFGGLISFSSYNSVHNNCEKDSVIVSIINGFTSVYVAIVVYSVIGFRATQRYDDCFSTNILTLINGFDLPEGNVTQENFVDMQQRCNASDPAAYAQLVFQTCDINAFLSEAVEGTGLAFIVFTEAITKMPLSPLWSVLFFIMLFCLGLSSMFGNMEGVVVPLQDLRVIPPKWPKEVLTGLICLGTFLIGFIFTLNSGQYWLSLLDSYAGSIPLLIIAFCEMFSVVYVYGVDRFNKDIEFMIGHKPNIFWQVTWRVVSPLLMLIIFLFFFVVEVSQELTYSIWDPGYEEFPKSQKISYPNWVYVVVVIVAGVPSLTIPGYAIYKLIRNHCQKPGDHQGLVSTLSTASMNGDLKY
T1 sequence (Q9HBJ8 15-222 partner): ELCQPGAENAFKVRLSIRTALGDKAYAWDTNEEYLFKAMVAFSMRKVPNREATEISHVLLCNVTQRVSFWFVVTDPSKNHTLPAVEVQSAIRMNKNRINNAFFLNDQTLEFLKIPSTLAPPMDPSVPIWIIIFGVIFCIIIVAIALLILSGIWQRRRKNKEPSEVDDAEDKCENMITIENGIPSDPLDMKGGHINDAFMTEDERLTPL
In short: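 CHO cells were induced with doxycycline for 18 h at 37 °C, washed in HBSS, then exposed to compounds for 1 h: 8-point, 3-fold dilutions in duplicate, 0.5% DMSO final. Uptake measured by scintillation counting after 2 h shaking. Activity normalized with positive control as 0% and DMSO as 100%.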

human SLC6A19 and TMEM27 [2] = target: T1, human SLC6A19 and TMEM27; test: 13C6,15N-isoleucine uptake in CHO cells with doxycycline-inducible expression of human SLC6A19 and TMEM27, RapidFire mass spectrometry (Example B-2); format: cell-based; conditions: read-out: SLC6A19_RapidFire Uptake Assay IC50
In short: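 Read-out is RapidFire mass-spec peak area of 13C6,15N-isoleucine taken up over 20 min at 37 °C, after 20 min compound pre-exposure in pH 7.2 HEPES-buffered saline. Cells: doxycycline-induced CHO co-expressing human SLC6A19 and TMEM27; compounds as duplicate 10-point 2-fold dilutions, positive control setting 0% activity.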

Structure (SMILES) | pIC50 (human SLC6A19 and TMEM27 [1]) | pIC50 (human SLC6A19 and TMEM27 [2])
CNC(=O)NCc1cc2cc(F)c(OCc3ccon3)cc2[nH]1 [Compound 216, 1-((5-fluoro-6-(isoxazol-3-ylmethoxy)-1H-indol-2-yl)methyl)-3-methylurea] | 5.85 | 5.43
CC(C)C(=O)NCc1cc2cc(F)c(OCc3cocn3)cc2[nH]1 [Compound 501, N-((5-fluoro-6-(oxazol-4-ylmethoxy)-1H-indol-2-yl)methyl)isobutyramide] | 6.51 | 5.89
CC1(C(=O)NCc2cc3cc(F)c(OCc4cccc(F)n4)cc3[nH]2)CC1 [Compound 327, N-((5-fluoro-6-((6-fluoropyridin-2-yl)methoxy)-1H-indol-2-yl)methyl)-1-methylcyclopropane-1-carboxamide] | 6.65 | 7.05
CC1(C(=O)NCc2cc3ccc(OCc4cccnc4F)cc3[nH]2)CC1 [Compound 98, N-((6-((2-fluoropyridin-3-yl)methoxy)-1H-indol-2-yl)methyl)-1-methylcyclopropane-1-carboxamide formate] | 6.68 | 6.56
CC1(C(=O)NCc2cc3cc(F)c(OCc4ccccn4)cc3[nH]2)CC1 [Compound 330, N-((5-fluoro-6-(pyridin-2-ylmethoxy)-1H-indol-2-yl)methyl)-1-methylcyclopropane-1-carboxamide] | 6.78 | 6.91
CC(C)C(=O)NCc1cc2cc(Cl)c(OCc3cscn3)cc2[nH]1 [Compound 145, N-((5-chloro-6-(thiazol-4-ylmethoxy)-1H-indol-2-yl)methyl)isobutyramide] | 7.14 | 7.37
CC1(C(=O)NCc2cc3cc(Cl)c(OCc4cscn4)c(F)c3[nH]2)CC1 [Compound 18, N-((5-chloro-7-fluoro-6-(thiazol-4-ylmethoxy)-1H-indol-2-yl)methyl)-1-methylcyclopropane-1-carboxamide] | 7.11 | 7.04
O=C(NCc1cc2cc(OC(F)(F)F)c(OCc3cscn3)cc2[nH]1)N1CCCC1 [Compound 415, N-((6-(thiazol-4-ylmethoxy)-5-(trifluoromethoxy)-1H-indol-2-yl)methyl)pyrrolidine-1-carboxamide] | 6.42 | 7.03
O=C(NCc1cc2cc(OC(F)(F)F)c(OCc3cscn3)cc2[nH]1)N1CCC1 [Compound 421, N-((6-(thiazol-4-ylmethoxy)-5-(trifluoromethoxy)-1H-indol-2-yl)methyl)azetidine-1-carboxamide] | 6.44 | 6.88
CC1(C(=O)NCc2cc3cc(Cl)c(OCc4csc(Cl)c4)cc3[nH]2)CC1 [Compound 324, N-((5-chloro-6-((5-chlorothiophen-3-yl)methoxy)-1H-indol-2-yl)methyl)-1-methylcyclopropane-1-carboxamide] | 5.95 | 6.32
CC1(C(=O)NCc2cc3cc(Cl)c(OCc4cn5ccccc5n4)cc3[nH]2)CC1 [Compound 632, N-((5-chloro-6-(imidazo[1,2-a]pyridin-2-ylmethoxy)-1H-indol-2-yl)methyl)-1-methylcyclopropane-1-carboxamide] | 5.83 | < 5.69
CC1(C(=O)NCc2cc3cc(Cl)c(OCc4ccon4)cc3[nH]2)CCC1 [Compound 504, N-((5-chloro-6-(isoxazol-3-ylmethoxy)-1H-indol-2-yl)methyl)-1-methylcyclobutane-1-carboxamide] | 6.41 | 6.39
CC1(C(=O)NCc2cc3cc(Cl)c(OCc4cncs4)cc3[nH]2)CC1 [Compound 177, N-((5-chloro-6-(thiazol-5-ylmethoxy)-1H-indol-2-yl)methyl)-1-methylcyclopropane-1-carboxamide] | 6.51 | 6.56
Cn1ncc(COc2cc3[nH]c(CNC(=O)N4CCCC4)cc3cc2Cl)n1 [Compound 406, N-((5-chloro-6-((2-methyl-2H-1,2,3-triazol-4-yl)methoxy)-1H-indol-2-yl)methyl)pyrrolidine-1-carboxamide] | 6.46 | 6.76
CC1(C(=O)NCc2cc3cc(Cl)c(NCc4cscn4)cc3[nH]2)CC1 [Compound 452, N-((5-chloro-6-((thiazol-4-ylmethyl)amino)-1H-indol-2-yl)methyl)-1-methylcyclopropane-1-carboxamide] | 6.84 | 7.20
O=C(NCc1cc2cc(Cl)c(NCc3ccon3)cc2[nH]1)N1CCCC1 [Compound 413, N-((5-chloro-6-((isoxazol-3-ylmethyl)amino)-1H-indol-2-yl)methyl)pyrrolidine-1-carboxamide] | 6.56 | 6.62
CC1(C(=O)NCc2cc3cc(Cl)c(OCc4cc(C(F)(F)F)on4)cc3[nH]2)CC1 [Compound 352, N-((5-chloro-6-((5-(trifluoromethyl)isoxazol-3-yl)methoxy)-1H-indol-2-yl)methyl)-1-methylcyclopropane-1-carboxamide] | 7.17 | 6.33
O=C(NCc1cc2cc(OC(F)(F)F)c(CCc3cscn3)cc2[nH]1)N1CCCC1 [Compound 419, N-((6-(2-(thiazol-4-yl)ethyl)-5-(trifluoromethoxy)-1H-indol-2-yl)methyl)pyrrolidine-1-carboxamide] | 6.36 | 6.80
CCC(=O)NCc1cc2cc(Cl)c(OCc3cc(C)no3)cc2[nH]1 [Compound 438, N-((5-chloro-6-((3-methylisoxazol-5-yl)methoxy)-1H-indol-2-yl)methyl)propionamide] | 7.15 | 7.57
CC1(C(=O)NCc2cc3cc(C4CC4)c(OCc4cscn4)cc3[nH]2)CC1 [Compound 341, N-((5-cyclopropyl-6-(thiazol-4-ylmethoxy)-1H-indol-2-yl)methyl)-1-methylcyclopropane-1-carboxamide] | 6.56 | 6.71
COc1cc2cc(CNC(=O)C3(C)CC3)[nH]c2cc1CCc1ccon1 [Compound 630, N-((6-(2-(isoxazol-3-yl)ethyl)-5-methoxy-1H-indol-2-yl)methyl)-1-methylcyclopropane-1-carboxamide] | 6.81 | 6.95
O=C(NCc1cc2cc(F)c(OCc3ccon3)cc2[nH]1)C1CCC1 [Compound 431, N-((5-fluoro-6-(isoxazol-3-ylmethoxy)-1H-indol-2-yl)methyl)cyclobutanecarboxamide] | 6.61 | 6.46
CC1(C(=O)NCc2cc3cc(Cl)c(OCc4cscn4)cc3[nH]2)CC1 [Compound 184, N-((5-chloro-6-(thiazol-4-ylmethoxy)-1H-indol-2-yl)methyl)-1-methylcyclopropane-1-carboxamide] | 6.84 | 7.23
CC1(C(=O)NCc2cc3ccc(OCc4cccc(F)n4)cc3[nH]2)CC1 [Compound 33, N-((6-((6-fluoropyridin-2-yl)methoxy)-1H-indol-2-yl)methyl)-1-methylcyclopropane-1-carboxamide] | 6.76 | 6.66
CC1(C(=O)NCc2cc3cc(Cl)c(CCc4cscn4)cc3[nH]2)CC1 [Compound 149, N-((5-chloro-6-(2-(thiazol-4-yl)ethyl)-1H-indol-2-yl)methyl)-1-methylcyclopropane-1-carboxamide] | 7.07 | 7.47
Cc1cc(COc2cc3[nH]c(CNC(=O)C4(C)CC4)cc3cc2C)no1 [Compound 14, 1-methyl-N-((5-methyl-6-((5-methylisoxazol-3-yl)methoxy)-1H-indol-2-yl)methyl)cyclopropane-1-carboxamide] | 6.95 | 6.92
CC(C)C(=O)NCc1cc2cc(Cl)c(OCc3ccon3)cc2[nH]1 [Compound 132, N-((5-chloro-6-(isoxazol-3-ylmethoxy)-1H-indol-2-yl)methyl)isobutyramide] | 6.87 | 6.99
CC1(C(=O)NCc2cc3cc(Cl)c(OCc4cscn4)c(Cl)c3[nH]2)CC1 [Compound 344, N-((5,7-dichloro-6-(thiazol-4-ylmethoxy)-1H-indol-2-yl)methyl)-1-methylcyclopropane-1-carboxamide] | 5.41 | < 4.30
CC1(C(=O)NCc2cc3cc(Cl)c(OCc4ccoc4)cc3[nH]2)CC1 [Compound 64, N-((5-chloro-6-(furan-3-ylmethoxy)-1H-indol-2-yl)methyl)-1-methylcyclopropane-1-carboxamide] | 7.11 | 7.62
